In US12419888B2, “Methods of treating elevated plasma cholesterol” (INSTITUT DE CARDIOLOGIE DE MONTREAL, priority 2020, dated 2025):

Tested on: LDLR protein levels in HepG2 cells
Assay: Western blot analysis of relative LDLR protein levels in HepG2 cells after treatment
Type: cell-based, human
Settings: HepG2 cells incubated overnight with compound, 0.2 μM to 20 μM
Experimental: Cell culture, treatments and cell viability assay. For phenotypic screening of PCSK9 modulators and/or LDLR small molecule inducers, human HepG2 cells were incubated overnight in conditioned media containing chemical compounds resuspended in DMSO at concentration ranging from 0.2 μM to 20 μM. […] Following incubation, media have been replaced and cells incubated for 4 h with 100 μL of phenol red-free DMEM containing 0.5 mg/mL of MTT (3-[4,5-dimethylthiazol-2-yl]-2,5-diphenyltetrazolium bromide; thiazolyl blue; catalog no. M5655, Sigma-Aldrich), following manufacturer's instructions.
Western Blot Analysis, Immunocytochemistry and LDLR Activity Assay. Following incubation, cells were washed three times in phosphate-buffered saline (PBS) and lysed in radioimmune precipitation assay buffer (50 mM Tris/HCl, pH 8.0, 1% (v/v) Nonidet P-40, 0.5% sodium deoxycholate, 150 mM NaCl, and 0.1% (v/v) SDS) supplemented with a complete protease inhibitor mixture (catalog no. 11 697 498 001, Roche Applied Science). Proteins were separated by SDS polyacrylamide gel electrophoresis, blotted on nitrocellulose membranes (Bio-Rad), blocked incubated with indicated antibodies as described (Poirier S, et al., Cell Rep, 2015). For immunocytochemistry analysis, cells were permeabilized or not with 0.1% Triton X-100/PBS for 10 min, and incubated with 150 mM glycine, blocked and incubated with indicated primary and secondary antibodies. Immunofluorescence analyses were performed with an Olympus FluoView FV10i confocal microscope (Poirier et al., Cell Rep. 2015; 13(10):2064-2071). For LDLR activity assay, HepG2 cells were incubated overnight without or with a given compound in the presence of 5 μg/ml fluorescent labelled DiI-LDL (Alfa Aesar, Cat. #J65330) and co-stained for LDLR if applicable, as described (Poirier et al., J Biol Chem. 2009; 284(42):28856-28864). Immunofluorescence analyses were performed with an Olympus FluoView FV10i confocal microscope.

Q: With `CC1=NC2=NC(NCCc3c[nH]c4ccccc34)=N[C@H](c3ccccc3)N2C(O)=C1` (stereo in doubt) [Compound 29, 2-{[2-(1H-indol-3-yl)ethyl]amino}-8-methyl-4-phenyl-4H-pyrimido[1,2-a][1,3,5]triazin-6-ol] as the molecule, how does the “LDLR Fold (relative LDLR protein levels)” value read?
A: 0.9 Fold

Q: How did the “LDLR Fold (relative LDLR protein levels)” value turn out when `Cc1ccc2c(CC(=O)N3CCc4c([nH]c5ccccc45)[C@H]3c3ccccn3)cc(=O)oc2c1` (stereo in doubt) [Compound 22, 7-methyl-4-{2-oxo-2-[1-(pyridin-2-yl)-1H,2H,3H,4H,9H-pyrido[3,4-b]indol-2-yl]ethyl}-2H-chromen-2-one] was run?
A: 1.4 Fold

Q: `O=C(CN1C(=O)c2ccccc2C1=O)N1CCN(c2nnc(-c3ccccc3)c3ccccc23)CC1` [Compound 38, 2-{2-oxo-2-[4-(4-phenylphthalazin-1-yl)piperazin-1-yl]ethyl}-2,3-dihydro-1H-isoindole-1,3-dione] was tested. Which “LDLR Fold (relative LDLR protein levels)” value did it give?
A: 0.9 Fold

Q: With `Cc1ccc2nccc(C(=O)N3CCC[C@H](Cn4cc(C(C)(C)N)nn4)C3)c2c1` (stereo in doubt) [Compound 44, 2-[1-({1-[(6-methylquinolin-4-yl)carbonyl]piperidin-3-yl}methyl)-1H-1,2,3-triazol-4-yl]propan-2-amine] as the molecule, how does the “LDLR Fold (relative LDLR protein levels)” value read?
A: 1.2 Fold

Q: With `C[C@H](NC(=O)[C@@H]1Cc2c([nH]c3ccccc23)[C@H]2c3ccccc3C(=O)N21)C(=O)NC1CCCC1` [Compound 1, (2S)—N-cyclopentyl-2-{[(11 S)-9-oxo-10,20-diazapentacyclo[11.7.0.0^2,^10.0^3,^8.0^14,^19]icosa-1(13),3,5,7,14,16,18-heptaen-11-yl]formamido}propanamide] as the molecule, how does the “LDLR Fold (relative LDLR protein levels)” value read?
A: 1.2 ± 0.2 Fold

Q: `CC(=O)N1CCC2(CC1)CC(=O)c1ccc(OCC(=O)N3CCc4ccccc43)cc1O2` [Compound 6, 1′-acetyl-7-[2-(2,3-dihydro-1H-indol-1-yl)-2-oxoethoxy]-3,4-dihydrospiro[1-benzopyran-2,4′-piperidin]-4-one] was tested. Which “LDLR Fold (relative LDLR protein levels)” value did it give?
A: 0.8 ± 0.3 Fold

Q: For `CC[C@@H]1CCCCN1C(=O)CN1C(=O)N[C@@](C)(c2ccc3ccccc3c2)C1=O` (stereo in doubt) [Compound 18, 3-[2-(2-ethylpiperidin-1-yl)-2-oxoethyl]-5-methyl-5-(naphthalen-2-yl)imidazolidine-2,4-dione], which “LDLR Fold (relative LDLR protein levels)” value is on record?
A: 1.4 ± 0.7 Fold

Q: For `CC1=NC2=NC(N3CCC(Cc4ccccc4)CC3)=N[C@H](c3cccnc3)N2C(O)=C1` (stereo in doubt) [Compound 34, 2-(4-benzylpiperidin-1-yl)-8-methyl-4-(pyridin-3-yl)-4H-pyrimido[1,2-a][1,3,5]triazin-6-ol], which “LDLR Fold (relative LDLR protein levels)” value is on record?
A: 1.0 Fold

Q: `C[C@@]1(c2ccc3ccccc3c2)NC(=O)N(CC(=O)N2CCC[C@@H]3CCCC[C@@H]32)C1=O` (stereo in doubt) [Compound 17, 3-[2-(decahydroquinolin-1-yl)-2-oxoethyl]-5-methyl-5-(naphthalen-2-yl)imidazolidine-2,4-dione] was tested. Which “LDLR Fold (relative LDLR protein levels)” value did it give?
A: 1.2 ± 0.6 Fold

Q: With `Cc1ccc(-c2nnc(N3CCN(C(=O)CN4C(=O)c5ccccc5C4=O)CC3)c3ccccc23)cc1` [Compound 36, 2-(2-{4-[4-(4-methylphenyl)phthalazin-1-yl]piperazin-1-yl}-2-oxoethyl)-2,3-dihydro-1H-isoindole-1,3-dione] as the molecule, how does the “LDLR Fold (relative LDLR protein levels)” value read?
A: 0.8 Fold

Q: With `c1ccc2c(N3CCN(Cc4ccc5c(c4)OCO5)CC3)nnc(Cc3ccncc3)c2c1` [Compound 41, 1-{4-[(2H-1,3-benzodioxol-5-yl)methyl]piperazin-1-yl}-4-[(pyridin-4-yl)methyl]phthalazine] as the molecule, how does the “LDLR Fold (relative LDLR protein levels)” value read?
A: 0.7 Fold

Q: How did the “LDLR Fold (relative LDLR protein levels)” value turn out when `Cc1cc(C(=O)N2CCCC(C(=O)Nc3ccccc3)C2)c2ccccc2n1` (stereo not shown) [Compound 51, 1-(2-methylquinoline-4-carbonyl)-N-phenylpiperidine-3-carboxamide] was run?
A: 1.2 Fold

Q: With `Cc1ccc(-c2cc(C(=O)N3CCc4c([nH]c5ccccc45)C3c3ccccn3)[nH]n2)s1` (stereo not drawn) [Compound 25, 2-{[3-(5-methyl-2-thienyl)-1H-pyrazol-5-yl]carbonyl}-1-(2-pyridinyl)-2,3,4,9-tetrahydro-1H-beta-carboline] as the molecule, how does the “LDLR Fold (relative LDLR protein levels)” value read?
A: 1.1 Fold

Q: For “3-(1,3-benzodioxol-5-yl)-1-[(1S)-1-(6-methylpyridin-2-yl)-1,3,4,9-tetrahydropyrido[3,4-b]indol-2-yl]propan-1-one [Compound 23]”, which “LDLR Fold (relative LDLR protein levels)” value is on record?
A: 1.2 Fold

Q: `COc1cc(C(=O)N2CCC[C@H](CNS(=O)(=O)c3cccs3)C2)c2ccccc2n1` (stereo in doubt) [Compound 48, N-{[1-(2-methoxyquinoline-4-carbonyl)piperidin-3-yl]methyl}thiophene-2-sulfonamide] was tested. Which “LDLR Fold (relative LDLR protein levels)” value did it give?
A: 1.0 Fold

Q: `COc1ccccc1[C@H]1N=C(N2CCC(Cc3ccccc3)CC2)N=C2N=C(C)C=C(O)N21` (stereo in doubt) [Compound 52, 2-(4-benzylpiperidin-1-yl)-4-(2-methoxyphenyl)-8-methyl-4H-pyrimido[1,2-a][1,3,5]triazin-6-ol] was tested. Which “LDLR Fold (relative LDLR protein levels)” value did it give?
A: 0.7 Fold

Q: For `O=C(NCCc1c[nH]c2ccccc12)c1ccc2c(c1)NC(=O)[C@H]1CCCCN21` (stereo in doubt) [Compound 8, N-[2-(1H-indol-3-yl)ethyl]-6-oxo-5,6a,7,8,9,10-hexahydropyrido[1,2-a]quinoxaline-3-carboxamide], which “LDLR Fold (relative LDLR protein levels)” value is on record?
A: 1.0 ± 0.2 Fold

Q: Which “LDLR Fold (relative LDLR protein levels)” value does the source give for `CN1C(=O)c2cc(C(=O)N3CCN(c4ccccc4)CC3)nn2C[C@]1(C)C(=O)NC1CCCCCC1` (stereo in doubt) [Compound 5, N-cycloheptyl-5,6-dimethyl-4-oxo-2-(4-phenylpiperazine-1-carbonyl)-4H,5H,6H,7H-pyrazolo[1,5-a]pyrazine-6-carboxamide] here?
A: 0.8 ± 0.0 Fold

Q: Which “LDLR Fold (relative LDLR protein levels)” value does the source give for `COc1ccccc1[C@H]1N=C(N2CCN(c3cccc(Cl)c3)CC2)N=C2N=C(C)C=C(O)N21` [Compound 33, 2-[4-(3-chlorophenyl)piperazin-1-yl]-4-(2-methoxyphenyl)-8-methyl-1,4-dihydro-6H-pyrimido[1,2-a][1,3,5]triazin-6-ol] here?
A: 1.0 Fold

Q: How did the “LDLR Fold (relative LDLR protein levels)” value turn out when `O=C(Nc1ccccc1)[C@H]1CCCN(C(=O)c2cc(-c3ccncc3)nc3ccccc23)C1` (stereo in doubt) [Compound 46, N-phenyl-1-[2-(pyridin-4-yl)quinoline-4-carbonyl]piperidine-3-carboxamide] was run?
A: 1.1 Fold

Q: `O=C(Nc1ccccc1)[C@H]1CCCN(C(=O)c2cc(C3CC3)nc3ccccc23)C1` (stereo in doubt) [Compound 45, 1-(2-cyclopropylquinoline-4-carbonyl)-N-phenylpiperidine-3-carboxamide] was tested. Which “LDLR Fold (relative LDLR protein levels)” value did it give?
A: 1.2 Fold

Q: How did the “LDLR Fold (relative LDLR protein levels)” value turn out when `Cc1cccc(C(=O)N2CCC[C@H](Cn3cc(C(C)(C)N)nn3)C2)c1C` (stereo in doubt) [Compound 50, 2-(1-{[1-(2,3-dimethylbenzoyl)piperidin-3-yl]methyl}-1H-1,2,3-triazol-4-yl)propan-2-amine] was run?
A: 1.1 Fold

Q: With `Cc1cccc([C@@H]2c3[nH]c4ccccc4c3CCN2C(=O)CCN2CCCCC2=O)n1` (stereo in doubt) [Compound 20, 1-{3-[1-(6-methylpyridin-2-yl)-1H,2H,3H,4H,9H-pyrido[3,4-b]indol-2-yl]-3-oxopropyl}piperidin-2-one] as the molecule, how does the “LDLR Fold (relative LDLR protein levels)” value read?
A: 1.4 Fold

Q: How did the “LDLR Fold (relative LDLR protein levels)” value turn out when `COc1ccccc1C1N=C(Nc2cccc(C)c2C)N=C2N=C(C)C=C(O)N21` (stereo not shown) [Compound 32, 2-[(2,3-dimethylphenyl)amino]-4-(2-methoxyphenyl)-8-methyl-4H-pyrimido[1,2-a][1,3,5]triazin-6-ol] was run?
A: 0.8 Fold

Q: How did the “LDLR Fold (relative LDLR protein levels)” value turn out when `CC1(c2ccc3ccccc3c2)NC(=O)N(CC(=O)N2CCCC(c3nc4ccccc4s3)C2)C1=O` (stereo not shown) [Compound 12, 3-{2-[3-(1,3-benzothiazol-2-yl)piperidin-1-yl]-2-oxoethyl}-5-methyl-5-(naphthalen-2-yl)imidazolidine-2,4-dione] was run?
A: 1.8 ± 0.6 Fold

Q: For `C[C@@]1(c2ccc3ccccc3c2)NC(=O)N(CC(=O)N2CCC(Cc3ccccc3)CC2)C1=O` (stereo in doubt) [Compound 19, 3-[2-(4-benzylpiperidin-1-yl)-2-oxoethyl]-5-methyl-5-(naphthalen-2-yl)imidazolidine-2,4-dione], which “LDLR Fold (relative LDLR protein levels)” value is on record?
A: 1.0 ± 0.5 Fold

Q: For `CC1=NC2=NC(N3CCN(c4ccccc4)CC3)=N[C@H](c3ccc(Cl)cc3)N2C(O)=C1` (stereo in doubt) [Compound 31, 4-(4-chlorophenyl)-8-methyl-2-(4-phenylpiperazin-1-yl)-4H-pyrimido[1,2-a][1,3,5]triazin-6-ol], which “LDLR Fold (relative LDLR protein levels)” value is on record?
A: 1.1 Fold

Q: For `COc1ccc2cc([C@]3(C)NC(=O)N(CC(=O)N4CCC[C@@H]5CCCC[C@@H]54)C3=O)ccc2c1` (stereo in doubt) [Compound 15, 3-[2-(decahydroquinolin-1-yl)-2-oxoethyl]-5-(6-methoxynaphthalen-2-yl)-5-methylimidazolidine-2,4-dione], which “LDLR Fold (relative LDLR protein levels)” value is on record?
A: 1.1 ± 0.6 Fold
